Data: article PMC12974487, “Inhibition of FicD-mediated AMPylation and deAMPylation by isoprenoid diphosphates” (Proceedings of the National Academy of Sciences of the …, 2026)
Residue numbers refer to the chain shown, from its start.

Assays:
FicD^WT = target: T1, FicD^WT (Homo sapiens, UniProt Q9BVA6); set-up: method as in PMID 25435325; settings: cited from earlier work
T1 construct: soluble ER luminal domain (residues 105 to 458) of wild-type human FicD; 6xHis-Sumo (N, cleaved yes); made in house; host or cells: Rosetta(DE3) E. coli
T1 sequence (Q9BVA6 105-458): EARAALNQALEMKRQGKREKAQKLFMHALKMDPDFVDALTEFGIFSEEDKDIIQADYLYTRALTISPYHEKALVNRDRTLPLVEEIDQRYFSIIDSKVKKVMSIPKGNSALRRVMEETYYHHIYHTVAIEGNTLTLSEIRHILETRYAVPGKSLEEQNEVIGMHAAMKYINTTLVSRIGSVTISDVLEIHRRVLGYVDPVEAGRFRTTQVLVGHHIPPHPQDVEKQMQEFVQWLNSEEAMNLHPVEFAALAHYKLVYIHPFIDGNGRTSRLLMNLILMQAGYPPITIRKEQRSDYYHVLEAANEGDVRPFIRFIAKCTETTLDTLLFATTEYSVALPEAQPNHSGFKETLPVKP

FicD^E234G = target: T2, FicD^E234G (Homo sapiens, UniProt Q9BVA6, E234G); experiment: Total (intact) mass analysis of FicD^E234G incubated with FPP; settings: 50uM FPP, 5mM MgCl2
T2 construct: soluble ER luminal domain (residues 105 to 458) of wild-type human FicD and three mutants; 6xHis-Sumo (N, cleaved yes); made in house; host or cells: Rosetta(DE3) E. coli
T2 sequence (Q9BVA6 105-458 E234G): T1 sequence (Q9BVA6 105-458) with E130G
Excerpt: To reveal the mechanism of FicD inhibition by FPP, we leveraged the FicD^E234G mutant for structural studies. We soaked FPP into crystals of the FicD^E234G variant and solved the ligand-bound structure (Fig. 5 A and B). […] The diphosphate group of FPP closely overlapped with the ADP diphosphate when superimposed with a FicD^E234G-ADP structure (Fig. 5 A, Left), and the hydrophobic isoprenyl groups of FPP overlap with the nucleoside in the active site binding pocket (Fig. 5 A, Right). The FPP diphosphate binds directly to the side chains of N369, R371, with the sidechain of D367 coordinating the Mg^2+ (Fig. 5B). These interactions mimic those observed between ADP/ATP and FicD ([26]). […] As previously noted, only GPP and FPP could bind to and inhibit FicD, but analogs of the isoprenoid-pyrophosphate metabolites (geraniol, GMP, farnesol, FMP, DMAPP, and MVAPP) could not (Fig. 2 B–D). Together, these observations indicate both the pyrophosphate head and the long isoprenoid tail of GPP/FPP contribute to the binding with FicD. […]
Intact mass analysis of proteins was performed by the UT Southwestern Proteomics Core. Intact protein samples were analyzed by LC/MS, using a Sciex X500B QTOF mass spectrometer operating in positive ion mode, coupled to an Agilent 1290 Infinity II HPLC. […]

In the case of `Nc1ncnc2c1ncn2[C@@H]1O[C@H](COP(=O)(O)OP(=O)(O)O)[C@@H](O)[C@H]1O` [ADP], the Kd (FicD^WT) is given as 1500 nM.
With `CC(C)=CCC/C(C)=C/CC/C(C)=C/COP(=O)(O)OP(=O)(O)O` [FPP, farnesyl-pyrophosphate] the “mass shift associated with putative FPP automodification” value (FicD^E234G) was “no mass shift”.
